Results taken from paper PMC4448988 (Pharmacology Research & Perspectives, 2015).

How the values were obtained:
[1] = target: human CYP24A1 (Homo sapiens, UniProt Q07973); type: in vitro ADME; settings: pH 7.4
[2] = system: ED-71 O-dehydroxypropylation activity in human small intestine microsomes; type: in vitro ADME; settings: 1 μmol/L ketoconazole

SMILES	Relative kcat/Km [1]	ED-71 O-dehydroxypropylation activity reduced to (remaining activity) [2] [%]
C=C1/C(=C\C=C2/CCC[C@]3(C)[C@@H]([C@H](C)CCCC(C)(C)O)CC[C@@H]23)C[C@@H](O)C[C@@H]1O [1α,25(OH)2D3, 1α,25-dihydroxyvitamin D3]	1	
CC(=O)N1CCN(c2ccc(OCC3COC(Cn4ccnc4)(c4ccc(Cl)cc4Cl)O3)cc2)CC1 (centres unmarked) [ketoconazole]		37
